Source: ChEMBL document CHEMBL4613322, “HOPPI-NMR: Hot-Peptide-Based Screening Assay for Inhibitors of Protein-Protein Interactions by NMR” (ACS Med Chem Lett, 2020)
Activity calls are given as the source filed them. The rule behind the calls is not given here. Peptide text beside a SMILES is read from it.

How the values were obtained:
[1] = target: T1, E3 ubiquitin-protein ligase Mdm2 (Homo sapiens, UniProt Q00987); assay: Binding affinity to 6xHis-taged MDM2 (unknown origin) expressed in Escherichia coli Gold (DE3) assessed as observation of positive signal at 0.1 mM by STD-NMR analysis
Target sequence in this assay (Q00987 whole entry, looked up): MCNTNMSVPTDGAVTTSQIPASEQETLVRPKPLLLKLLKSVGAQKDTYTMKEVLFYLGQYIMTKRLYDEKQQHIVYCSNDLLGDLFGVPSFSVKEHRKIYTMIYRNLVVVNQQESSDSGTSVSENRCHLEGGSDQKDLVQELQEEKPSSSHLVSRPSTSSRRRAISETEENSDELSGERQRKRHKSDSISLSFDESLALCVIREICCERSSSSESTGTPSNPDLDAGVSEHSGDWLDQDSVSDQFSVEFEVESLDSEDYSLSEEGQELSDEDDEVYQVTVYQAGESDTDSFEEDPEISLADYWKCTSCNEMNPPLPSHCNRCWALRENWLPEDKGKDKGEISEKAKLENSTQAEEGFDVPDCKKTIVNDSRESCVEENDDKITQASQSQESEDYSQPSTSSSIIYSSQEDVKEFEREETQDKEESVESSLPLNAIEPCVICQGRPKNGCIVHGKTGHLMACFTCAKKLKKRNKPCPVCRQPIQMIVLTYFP

[2] = target: T1, E3 ubiquitin-protein ligase Mdm2; assay: Competitive binding affinity to 6xHis-taged MDM2 (unknown origin) expressed in Escherichia coli Gold (DE3) assessed as reduction in STD signal intensity at 0.1 mM in presence of 0.1 mM nutlin-3a by STD-NMR analysis
Target sequence in this assay (Q00987 whole entry, looked up): as above

[3] = target: T1, E3 ubiquitin-protein ligase Mdm2; assay: Binding affinity to 6xHis-taged MDM2 (unknown origin) expressed in Escherichia coli Gold (DE3) assessed as increase in signal-to-noise ratio at 0.1 mM by STD-NMR analysis
Target sequence in this assay (Q00987 whole entry, looked up): as above

[4] = target: T1, E3 ubiquitin-protein ligase Mdm2; assay: Binding affinity to 6xHis-taged MDM2 (unknown origin) expressed in Escherichia coli Gold (DE3) assessed as change in signal intensity at 0.1 mM by WATERLOGSY-NMR analysis
Target sequence in this assay (Q00987 whole entry, looked up): as above

[5] = target: T1, E3 ubiquitin-protein ligase Mdm2; assay: Binding affinity to N-terminal 6xHis-tagged MDM2 (unknown origin) (1 to 126 residues) assessed as inhibition of MDM2/p53 protein-protein interaction by fluorescence anisotrophy assay
Target sequence in this assay (Q00987 whole entry): as the sequence (Q00987 whole entry, looked up) above

[6] = target: T1, E3 ubiquitin-protein ligase Mdm2; assay: Competitive binding affinity to 6xHis-taged MDM2 (unknown origin) expressed in Escherichia coli Gold (DE3) assessed as reduction in signal intensity at 0.1 mM in presence of 0.1 mM nutlin-3a by WATERLOGSY-NMR analysis
Target sequence in this assay (Q00987 whole entry, looked up): as above

[7] = target: Ras-related protein Rab-6A (Homo sapiens, UniProt P20340); assay: Binding affinity to RAB6A (unknown origin) assessed as inhibition of RAB6A/[…] protein-protein interaction
Ras-related protein Rab-6A, sequence (P20340 whole entry, the tested form may be a part): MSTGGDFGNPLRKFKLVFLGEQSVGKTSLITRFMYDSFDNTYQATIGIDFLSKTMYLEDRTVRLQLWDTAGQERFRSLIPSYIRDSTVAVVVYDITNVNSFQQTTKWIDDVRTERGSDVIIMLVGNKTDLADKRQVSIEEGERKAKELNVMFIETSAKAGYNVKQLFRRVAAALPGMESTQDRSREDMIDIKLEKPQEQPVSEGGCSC

[8] = Binding affinity to IPTG-induced […] human TEV cleavage site-fused- GST-tagged beta-catenin (134 to 665 residues) assessed as inhibition of beta-catenin/axin protein-protein interaction after 45 mins by fluorescence polarization assay
[9] = target: T1, E3 ubiquitin-protein ligase Mdm2; assay: Competitive binding affinity to 6xHis-taged MDM2 (unknown origin) expressed in Escherichia coli Gold (DE3) assessed as observation of residual signal at 0.1 mM in presence of 0.1 mM nutlin-3a by STD-NMR analysis
Target sequence in this assay (Q00987 whole entry, looked up): as the sequence (Q00987 whole entry, looked up) above

[10] = target: T1, E3 ubiquitin-protein ligase Mdm2; assay: Binding affinity to 6xHis-taged MDM2 (unknown origin) expressed in Escherichia coli Gold (DE3) assessed as inversion of signal intensity from negative to positive at 0.1 mM by WATERLOGSY-NMR analysis
Estrogen receptor = target: T2, Estrogen receptor (Homo sapiens, UniProt P03372); assay: Binding affinity to IPTG-induced human ER alpha LBD (301 to 553 residues) expressed in Escherichia coli BL21 (DE3) assessed as inhibition of ER alpha/NR2A protein-protein interaction at 25 degree by surface plasmon resonance assay
T2 sequence (P03372 whole entry): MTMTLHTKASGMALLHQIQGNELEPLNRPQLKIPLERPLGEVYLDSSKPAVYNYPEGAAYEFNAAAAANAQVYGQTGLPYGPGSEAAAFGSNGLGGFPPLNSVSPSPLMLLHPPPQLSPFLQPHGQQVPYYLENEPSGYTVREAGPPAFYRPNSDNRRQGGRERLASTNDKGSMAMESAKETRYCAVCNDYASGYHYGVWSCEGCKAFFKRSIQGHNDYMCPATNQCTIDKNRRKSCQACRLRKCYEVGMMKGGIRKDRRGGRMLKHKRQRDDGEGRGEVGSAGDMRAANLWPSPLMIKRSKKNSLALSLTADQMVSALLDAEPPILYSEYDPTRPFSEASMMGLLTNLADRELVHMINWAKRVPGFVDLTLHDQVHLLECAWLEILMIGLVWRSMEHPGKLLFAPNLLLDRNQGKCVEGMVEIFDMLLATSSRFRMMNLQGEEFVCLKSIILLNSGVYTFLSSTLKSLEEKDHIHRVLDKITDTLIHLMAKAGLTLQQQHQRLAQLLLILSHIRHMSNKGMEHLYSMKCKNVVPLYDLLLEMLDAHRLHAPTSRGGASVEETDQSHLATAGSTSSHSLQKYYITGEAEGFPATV

[11] = Binding affinity to Plasmodium falciparum N-terminal His6-tagged MTIP expressed in Escherichia coli BL21 (DE3) assessed as inhibition of MTIP/MyoA protein-protein interaction at 303 K by isothermal titration calorimetry
[12] = target: T3, BTB/POZ domain-containing protein KCTD11 (Homo sapiens, UniProt Q693B1); assay: Binding affinity to recombinant N-terminal poly His-Trx tagged KCTD11 (15 to 115 residues) (unknown origin) expressed in Escherichia coli assessed as inhibition of KCTD11/cullin3a protein-protein interaction by fluorescence polarization assay
T3 sequence (Q693B1 whole entry): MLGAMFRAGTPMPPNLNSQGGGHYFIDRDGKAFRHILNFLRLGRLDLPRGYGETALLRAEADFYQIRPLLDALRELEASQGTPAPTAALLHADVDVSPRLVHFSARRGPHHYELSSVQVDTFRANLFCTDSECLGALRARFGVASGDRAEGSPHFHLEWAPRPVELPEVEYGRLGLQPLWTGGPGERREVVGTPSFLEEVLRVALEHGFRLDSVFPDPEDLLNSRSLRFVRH

Menin = target: T4, Menin (Homo sapiens, UniProt O00255); assay: Binding affinity to human Menin expressed in Escherichia coli BL21 (DE3) assessed as inhibition of Menin/MLL1 protein-protein at 20 degree C by isothermal titration calorimetry
T4 sequence (O00255 whole entry): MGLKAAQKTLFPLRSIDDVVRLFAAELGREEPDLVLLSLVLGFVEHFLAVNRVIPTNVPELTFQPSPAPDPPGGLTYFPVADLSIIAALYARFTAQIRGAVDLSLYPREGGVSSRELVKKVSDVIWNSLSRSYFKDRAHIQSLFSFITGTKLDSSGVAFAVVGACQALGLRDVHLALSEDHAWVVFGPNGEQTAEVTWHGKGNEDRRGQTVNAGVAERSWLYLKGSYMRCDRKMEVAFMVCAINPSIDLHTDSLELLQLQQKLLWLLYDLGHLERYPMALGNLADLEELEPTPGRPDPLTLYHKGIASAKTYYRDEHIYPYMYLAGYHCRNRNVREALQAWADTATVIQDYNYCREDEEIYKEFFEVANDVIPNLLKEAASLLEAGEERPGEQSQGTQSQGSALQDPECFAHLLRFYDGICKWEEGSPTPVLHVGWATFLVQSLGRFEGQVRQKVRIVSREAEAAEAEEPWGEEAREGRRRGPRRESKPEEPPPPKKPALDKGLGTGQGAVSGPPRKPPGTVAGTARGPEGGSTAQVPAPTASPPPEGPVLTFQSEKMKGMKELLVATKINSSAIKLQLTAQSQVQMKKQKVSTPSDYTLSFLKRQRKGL

With `CC(C)C[C@H](NC(=O)[C@H](CC(C)C)NC(=O)[C@H](CCCCN)NC(=O)[C@H](Cc1c[nH]c2ccccc12)NC(=O)[C@H](CC(C)C)NC(=O)[C@H](CC(=O)O)NC(=O)[C@H](CO)NC(=O)[C@@H](N)Cc1ccccc1)C(=O)O` the Activity [1] was “Active”, the Activity [2] was “Active” and the Activity [3] was “Active”. For the same molecule, the Activity [4] was “Active”, the Kd [5] was 0.8 µM and the Activity [6] was “Active”.

Work on `CC(C)C[C@H](NC(=O)[C@H](CC(C)C)NC(=O)[C@H](Cc1cnc[nH]1)NC(=O)[C@H](Cc1ccc(O)cc1)NC(=O)[C@H](CC(C)C)NC(=O)[C@H](Cc1ccccc1)NC(=O)[C@H](CCC(N)=O)NC(=O)[C@H](CCC(=O)O)NC(=O)[C@H](CCCCN)NC(=O)[C@H](CCC(=O)O)NC(=O)[C@H](CC(=O)O)NC(=O)[C@@H](N)CC(=O)O)C(=O)N[C@@H](CO)C(=O)N[C@@H](Cc1ccccc1)C(=O)N[C@@H](CC(N)=O)C(=O)N[C@@H](C)C(=O)N[C@H](C(=O)O)C(C)C` (H-DDEKEQFLYHLLSFNAV-OH) yielded a Kd [7] of 20 µM.

Molecule `CC[C@H](C)[C@H](NC(=O)[C@H](CO)NC(=O)[C@H](CCC(=O)O)NC(=O)[C@@H]1CCCN1C(=O)[C@H](CC(N)=O)NC(=O)[C@@H](N)CCC(=O)O)C(=O)N[C@@H](CC(C)C)C(=O)N[C@@H](CC(=O)O)C(=O)N[C@@H](CCC(=O)O)C(=O)N[C@@H](Cc1cnc[nH]1)C(=O)N[C@H](C(=O)N[C@@H](CCC(N)=O)C(=O)N[C@@H](CCCNC(=N)N)C(=O)N[C@H](C(=O)N[C@@H](CCSC)C(=O)O)C(C)C)C(C)C` (H-ENPESILDEHVQRVM-OH) has a Kd [8] of 5 µM.

With `CC(C)C[C@H](NC(=O)[C@H](CCCCN)NC(=O)[C@H](Cc1c[nH]c2ccccc12)NC(=O)[C@H](CC(C)C)NC(=O)[C@H](CC(=O)O)NC(=O)[C@H](CO)NC(=O)[C@@H](N)Cc1ccccc1)C(=O)O` (H-FSDLWKL-OH) the Activity [1] was “Active”, the Activity [2] was “Active” and the Activity [3] was “Active”. For the same molecule, the Kd [5] was 150 µM, the Activity [6] was “Active” and the Activity [9] was “Active”. For the same molecule, the Activity [10] was “Active”.

`CC[C@H](C)[C@H](NC(=O)[C@H](CCCCN)NC(=O)[C@@H](N)Cc1cnc[nH]1)C(=O)N[C@@H](CC(C)C)C(=O)N[C@@H](Cc1cnc[nH]1)C(=O)N[C@@H](CCCNC(=N)N)C(=O)N[C@@H](CC(C)C)C(=O)N[C@@H](CC(C)C)C(=O)N[C@@H](CCC(N)=O)C(=O)N[C@@H](CC(=O)O)C(=O)N[C@@H](CO)C(=O)O` (H-HKILHRLLQDS-OH) gave a Kd (Estrogen receptor) of 2.5 µM.

For `CC[C@H](C)[C@H](NC(=O)[C@H](Cc1cnc[nH]1)NC(=O)[C@H](C)NC(=O)[C@H](CCC(N)=O)NC(=O)[C@@H](NC(=O)[C@H](CCCNC(=N)N)NC(=O)[C@H](CC(C)C)NC(=O)[C@H](CC(C)C)NC(=O)[C@H](CO)NC(=O)[C@@H]1CCCN1C(=O)[C@@H](NC(=O)[C@@H](N)CC(N)=O)[C@@H](C)CC)C(C)C)C(=O)N[C@@H](CCCNC(=N)N)C(=O)N[C@@H](CCCCN)C(=O)N[C@@H](CCCCN)C(=O)N[C@@H](CCSC)C(=O)N[C@H](C(=O)N[C@@H](C)C(=O)N[C@@H](CCC(N)=O)C(=O)O)C(C)C` (H-NIPSLLRVQAHIRKKMVAQ-OH), the Kd [11] was 0.085 µM.

Molecule `CSCC[C@H](NC(=O)[C@@H](NC(=O)[C@H](Cc1ccc(O)cc1)NC(=O)[C@H](C)NC(=O)[C@H](CC(N)=O)NC(=O)[C@H](CCCNC(=N)N)NC(=O)[C@H](Cc1ccc(O)cc1)NC(=O)[C@H](CC(C)C)NC(=O)[C@H](CCC(=O)O)NC(=O)[C@H](CCC(=O)O)NC(=O)[C@H](Cc1ccccc1)NC(=O)[C@H](CO)NC(=O)[C@H](CC(C)C)NC(=O)CNC(=O)[C@H](CO)NC(=O)[C@@H](N)CC(N)=O)[C@@H](C)O)C(=O)N[C@H](C(=O)N[C@@H](CC(C)C)C(=O)N[C@@H](Cc1cnc[nH]1)C(=O)N[C@@H](CCCCN)C(=O)O)C(C)C` (H-NSGLSFEELYRNAYTMVLHK-OH) has a Kd [12] of 0.497 µM.

Molecule `C[C@H](NC(=O)[C@@H]1CCCN1C(=O)[C@H](Cc1ccccc1)NC(=O)[C@H](CCCNC(=N)N)NC(=O)[C@H](Cc1c[nH]c2ccccc12)NC(=O)[C@@H](N)CCCNC(=N)N)C(=O)N[C@@H](CCCNC(=N)N)C(=O)N1CCC[C@H]1C(=O)NCC(=O)N[C@H](C(=O)N[C@H](C(=O)NCC(=O)NCC(=O)NCC(=O)NCC(=O)NCC(=O)NCC(=O)NCC(=O)N[C@@H](CCCNC(=N)N)C(=O)N[C@@H](CCCNC(=N)N)C(=O)O)[C@@H](C)O)[C@@H](C)O` (H-RWRFPARPGTTGGGGGGGRR-OH) has a Kd (Menin) of 0.082 µM.
